14 compounds from ChEMBL document CHEMBL3992492, “Sulfoximines from a Medicinal Chemist's Perspective: Physicochemical and in vitro Parameters Relevant for Drug Discovery” (Eur J Med Chem, 2017) can be followed below.

Data set [1] can be described thus: Dissociation constant, pKb of the compound in aqueous/organic mixture at pH 2 to 12 by potentiometric titration method. Format: physicochemical. The settings on record: buffer.
Data set [2] is described as follows: Apparent partition coefficient, log P of the compound in n-octanol/aqueous mixture at pH 12 by potentiometric titration method. The settings on record: octanol/water. Format: physicochemical.
For data set [3] the following is noted: octanol/water, pH 7.4.
Data set [4] can be described thus: in vitro. The following applies: human, liver microsomes. On the technique in general: Liver microsomes are vesicles of endoplasmic reticulum, rich in cytochrome P450 enzymes.
Description: Half life in human liver microsomes at 1 uM in presence of NADPH by LC-MS/MS method
Data set [5] is described as follows: in vitro. The settings on record: human, liver microsomes. This is another data set of the same source.
Data set [6] is described as follows: physchem. The settings on record: acetonitrile/water mixture.
Description: Solubility of the compound in acetonitrile/water mixture at 10 mM measured after 24 by HPLC-UV method
The nature of data set [7]: physchem. The following applies: aqueous.
A short description of data set [8]: in vitro. The following applies: PAMPA, pH 7.4. On the technique in general: PAMPA measures passive passage across an artificial lipid membrane.
Description: Apparent permeability of the compound at pH 7.4 by PAMPA
Data set [9] in a line: physchem. The following applies: aqueous/organic mixture, pH 2.
A short description of data set [10]: physchem. The following applies: n-octanol/aqueous mixture, pH 2.
Data set [11] is described as follows: physchem. The following applies: n-octanol/aqueous mixture, pH 7.4.
Data set [12] can be described thus: physchem. The following applies: octanol/water, pH 10.
Data set [13] can be described thus: Drug degradation in pH <1 HCl after 7 days by HPLC method.
Data set [14] can be described thus: Drug degradation in pH >10 NH3 after 7 days by HPLC method.
Data set [15] is described as follows: Dissociation constant, pKa of the compound. Format: physicochemical.
Data set [16] is described as follows: Dissociation constant, pKb of the compound in aqueous phase at pH 2 to 12 by potentiometric titration method. Format: physicochemical. The settings on record: buffer.
Data set [17] can be described thus: Apparent partition coefficient, log P of the compound in n-octanol/aqueous mixture at pH 3 by potentiometric titration method. The data set is classed as physicochemical.

The structures appear in SMILES notation. In brackets after ≈: the same amount, converted by molar mass. Some results are limits rather than exact numbers.

One may read the pKb as −log10 of the Kb, conventionally taken in molar units. Broadly, the logP is the decadic logarithm of the partition coefficient of the neutral form, usually between octanol and water. The logD is the decadic logarithm of the distribution of all forms, ionised or not, between an organic phase and buffer at a given pH. A word on the half-life: it is the time in which the quantity being followed falls by half. Low readings indicate rapid decline, high ones slow decline. As a reminder, the solubility is the concentration that dissolves in the medium under given conditions. The term solubility (thermodynamic) denotes solubility found after equilibrating the solid with the medium. The term Papp denotes the rate of passage across a membrane or cell layer, normalised by area and donor concentration. A higher Papp goes with ready permeation. `CS(=N)(=O)c1ccc(C(F)(F)F)cc1` (stereo not drawn): the pKb in data set [1] worked out at 2.5. Further, the logP in [2] turned out to be 2. In addition, the logD in data set [3] was determined as 2. The compound further displayed a half-life at 1 µM in the data set “in vitro [4]” of more than 130 min. In addition, the hepatic extraction ratio at 1 µM in the data set “in vitro [5]” was less than 0.23. Also, the solubility at 10000 µM in the data set “physchem [6]” was more than 50 µg/mL. This compound had a solubility (thermodynamic) in the data set “physchem [7]” of 9100 µg/mL (≈ 40.8 mM). In “in vitro [8]”, this compound had a Papp of 6.9 ×10⁻⁶ cm/s.
Usually pKa stands for the negative logarithm of the acid dissociation constant. Take `CNS(=O)(=O)c1ccc(C(F)(F)F)cc1`: the pKa in the data set “physchem [9]” was 10.7. Besides, the logD in the data set “physchem [10]” and in “physchem [11]” was 2.3 throughout. The compound also displayed a half-life at 1 µM in the data set “in vitro [4]” of more than 130 min. Further, the hepatic extraction ratio at 1 µM in the data set “in vitro [5]” is less than 0.23. For the same compound, the solubility at 10000 µM in “physchem [6]” is more than 49 µg/mL. In the data set “physchem [7]”, this compound displayed a thermodynamic solubility of 900 µg/mL (≈ 3.76 mM). Also, the Papp in “in vitro [8]” was found to be 6.3 ×10⁻⁶ cm/s.
Turning to `CS(C)(=N)=Nc1ccc(C(F)(F)F)cc1`, the pKb in data set [1] was found to be 4. Besides, the logP in data set [2] is 1.8; in “physchem [12]” it was -0.5. This compound yielded a logD in data set [3] of 1.8. This compound displayed a half-life at 1 µM in “in vitro [4]” of more than 130 min. Further, the hepatic extraction ratio at 1 µM in the data set “in vitro [5]” is less than 0.23. Further, in “physchem [6]”, the solubility at 10000 µM was more than 51 µg/mL. The compound also returned a thermodynamic solubility in the data set “physchem [7]” of 8400 µg/mL (≈ 35.6 mM). Besides, the Papp in the data set “in vitro [8]” stood at 5.6 ×10⁻⁶ cm/s.
With `O=S1(c2ccc(C(F)(F)F)cc2)=NCCCC1` (stereo not drawn), the pKb in data set [1] is on record as 3.8. For the same compound, the Drug degradation was less than 10% in data set [13] and 34% in data set [14]. In “physchem [12]”, this compound yielded a logP of 0.2. The half-life at 1 µM in the data set “in vitro [4]” is more than 130 min. The hepatic extraction ratio at 1 µM in “in vitro [5]” was less than 0.23. Also, in “physchem [6]”, the solubility at 10000 µM was more than 59 µg/mL. The compound further returned a solubility (thermodynamic) in the data set “physchem [7]” of 4700 µg/mL (≈ 17.9 mM). The compound further registered a Papp in “in vitro [8]” of 9.2 ×10⁻⁶ cm/s.
As for `CS(C)(=O)=N[C@H]1CC[C@@H](C(F)(F)F)CC1`, the pKb in data set [1] worked out at 4.2. Besides, the logP in data set [2] is 2.4. Besides, the logD in data set [3] amounted to 2.4. In addition, the half-life at 1 µM in “in vitro [4]” is more than 130 min. Further, the hepatic extraction ratio at 1 µM in “in vitro [5]” is less than 0.23. Also, the solubility (thermodynamic) in “physchem [7]” is 300 µg/mL (≈ 1.23 mM). Also, the Papp in the data set “in vitro [8]” is 7.8 ×10⁻⁶ cm/s.
`CS(=O)(=O)NC(=O)Nc1ccc(C(F)(F)F)cc1`: the pKa in the data set “physchem [9]” was determined as 4.2. Also, the results for the logD in the data set “physchem [10]” and in “physchem [11]” were 1.9 and -0.3, respectively. Besides, in the data set “in vitro [4]”, the half-life at 1 µM was more than 130 min. The hepatic extraction ratio at 1 µM in “in vitro [5]” was less than 0.23. Besides, the solubility at 10000 µM in the data set “physchem [6]” amounted to 55 µg/mL (≈ 0.195 mM). In addition, the solubility (thermodynamic) in “physchem [7]” came out at 11100 µg/mL (≈ 39.3 mM). The Papp in “in vitro [8]” came to 0.04 ×10⁻⁶ cm/s.
For the compound `CS(=N)(=O)c1ccccc1` (stereo not drawn), in data set [15], the pKa was determined as 2.7.
For the compound `CS(=N)(=O)c1ccc(Cl)cc1` (stereo not drawn), the pKa in data set [15] amounted to 2.3.
`CS(=O)(=O)NC(=O)c1ccc(C(F)(F)F)cc1`: the pKa in the data set “physchem [9]” was 3.2. For the same compound, the logD in “physchem [10]” was 1.7; in the data set “physchem [11]” it was -1. In “in vitro [4]”, the half-life at 1 µM was more than 130 min. Besides, in “in vitro [5]”, the hepatic extraction ratio at 1 µM was less than 0.23. Besides, in “physchem [6]”, the solubility at 10000 µM is more than 62 µg/mL. The compound further had a thermodynamic solubility in “physchem [7]” of more than 20000 µg/mL. The compound further yielded a Papp in the data set “in vitro [8]” of 0.01 ×10⁻⁶ cm/s.
The compound `O=S1(=O)CCNCC1` registered a negative-log Kb (pKb) in data set [16] of 5.4.
For the compound `NS(=O)(=O)c1ccc(C(F)(F)F)cc1`, the pKa in the data set “physchem [9]” turned out to be 9.4. Moreover, the logD in the data set “physchem [10]” and in “physchem [11]” was 1.4 each time. The same compound displayed a half-life at 1 µM in “in vitro [4]” of more than 130 min. Further, the hepatic extraction ratio at 1 µM in “in vitro [5]” is less than 0.23. Also, in the data set “physchem [6]”, the solubility at 10000 µM is more than 48 µg/mL. Moreover, the solubility (thermodynamic) in the data set “physchem [7]” came out at 800 µg/mL (≈ 3.55 mM). The compound further registered a Papp in “in vitro [8]” of 4.1 ×10⁻⁶ cm/s.
With `CS(=O)(=O)Nc1ccc(C(F)(F)F)cc1`, the logD in [17] amounted to 2; in the data set “physchem [11]” it was 1.9. For the same compound, the pKa in the data set “physchem [9]” came to 8. For the same compound, the half-life at 1 µM in “in vitro [4]” is more than 130 min. For the same compound, the hepatic extraction ratio at 1 µM in the data set “in vitro [5]” is less than 0.23. Besides, in “physchem [6]”, the solubility at 10000 µM is 47 µg/mL (≈ 0.196 mM). Further, the solubility (thermodynamic) in the data set “physchem [7]” amounted to 600 µg/mL (≈ 2.51 mM). The compound also displayed a Papp in “in vitro [8]” of 5.1 ×10⁻⁶ cm/s.
Take `CNS(=N)(=O)c1ccc(C(F)(F)F)cc1` (stereo not drawn): the pKb in data set [1] was determined as 2.4. Moreover, the logP in data set [2] was 0.9; in the data set “physchem [12]”, -0.5. The Drug degradation is 10% in data set [13] and less than 10% in data set [14]. Also, the logD in [3] amounted to 0.9. Besides, in “in vitro [4]”, the half-life at 1 µM stood at 47 min. Besides, the hepatic extraction ratio at 1 µM in “in vitro [5]” worked out at 0.45. In the data set “physchem [7]”, this compound had a thermodynamic solubility of 6900 µg/mL (≈ 29 mM). Also, the Papp in “in vitro [8]” was found to be 5.7 ×10⁻⁶ cm/s.
With `O=S1(=N[C@H]2CC[C@@H](C(F)(F)F)CC2)CCCCC1`, the pKb in [1] is on record as 5. For the same compound, the logP in data set [2] turned out to be 3.5. Moreover, the logD in data set [3] is 3.5. Further, in the data set “in vitro [4]”, the half-life at 1 µM amounted to 52 min. Further, the hepatic extraction ratio at 1 µM in “in vitro [5]” was 0.43. In “physchem [7]”, this compound displayed a thermodynamic solubility of less than 50 µg/mL. In addition, the Papp in “in vitro [8]” was 10 ×10⁻⁶ cm/s.
